Test results from the supplement of paper PMC13380429.

What was measured:
Details in all cases: 72 h
[1] = test system: HepG2; test: drug sensitivity score (DSS) for viability; higher = more toxic; extreme values may be limits of the assay
[2] = test system: Vero E6; test: as above
[3] = test system: Caco-2; test: as above
[4] = test system: U2OS; test: as above
[5] = test system: Calu-3; test: as above
[6] = test system: HepG2; test: cell viability relative to DMSO; higher = less toxic
[7] = test system: Vero E6; test: as above
[8] = test system: Caco-2; test: as above
[9] = test system: U2OS; test: as above
[10] = test system: Calu-3; test: as above
[11] = test system: HepG2; test: relative viability EC50 (midpoint between 100% and the lowest measured viability); higher = less toxic
[12] = test system: Vero E6; test: as above
[13] = test system: Caco-2; test: as above
[14] = test system: U2OS; test: as above
[15] = test system: Calu-3; test: as above

Row | SMILES | drug sensitivity score [1] | drug sensitivity score [2] | drug sensitivity score [3] | drug sensitivity score [4] | drug sensitivity score [5] | cell viability ([6]; 1 nM) [%] | cell viability ([6]; 10 nM) [%] | cell viability ([6]; 100 nM) [%] | cell viability ([6]; 1000 nM) [%] | cell viability ([6]; 10000 nM) [%] | cell viability ([7]; 1 nM) [%] | cell viability ([7]; 10 nM) [%] | cell viability ([7]; 100 nM) [%] | cell viability ([7]; 1000 nM) [%] | cell viability ([7]; 10000 nM) [%] | cell viability ([8]; 1 nM) [%] | cell viability ([8]; 10 nM) [%] | cell viability ([8]; 100 nM) [%] | cell viability ([8]; 1000 nM) [%] | cell viability ([8]; 10000 nM) [%] | cell viability ([9]; 1 nM) [%] | cell viability ([9]; 10 nM) [%] | cell viability ([9]; 100 nM) [%] | cell viability ([9]; 1000 nM) [%] | cell viability ([9]; 10000 nM) [%] | cell viability ([10]; 1 nM) [%] | cell viability ([10]; 10 nM) [%] | cell viability ([10]; 100 nM) [%] | cell viability ([10]; 1000 nM) [%] | cell viability ([10]; 10000 nM) [%] | relative viability EC50 [11] [µM] | relative viability EC50 [12] [µM] | relative viability EC50 [13] [µM] | relative viability EC50 [14] [µM] | relative viability EC50 [15] [µM]
1 | CC(=O)OCC(=O)[C@@]12OC3(CCCC3)O[C@@H]1C[C@H]1[C@@H]3CCC4=CC(=O)C=C[C@]4(C)[C@@]3(F)[C@@H](O)C[C@@]12C [amcinonide] | 0 | 0 | 0 | 0 | 0.3 | 108 | 97.1 | 98.2 | 91.8 | 99.8 | 102 | 96.2 | 99.6 | 95.6 | 95.4 | 104 | 105 | 94.6 | 107 | 104 | 101 | 101 | 92.6 | 97.2 | 91.5 | 101 | 103 | 93.9 | 89.3 | 97 | > 10 | > 10 | > 10 | > 10 | > 10
2 | CCC(=O)OCN1C(=O)C=CC1=O [MIRA-1] | 0 | 0 | 0 | 0 | 0 | 104 | 95.9 | 106 | 106 | 103 | 95.8 | 91.8 | 99.8 | 92 | 107 | 90.6 | 97.5 | 87.8 | 94.7 | 112 | 99.3 | 99.4 | 102 | 102 | 105 | 90.6 | 108 | 104 | 101 | 98.9 | > 10 | > 10 | > 10 | > 10 | > 10
3 | CCC(Cc1c(I)cc(I)c(N)c1I)C(=O)O (stereo not given) [iopanic-acid] | 0 | 0 | 0 | 0 | 0 | 106 | 112 | 100 | 110 | 99 | 109 | 103 | 104 | 102 | 93 | 110 | 107 | 98.8 | 85.8 | 113 | 99.7 | 95.6 | 97.9 | 96.7 | 97.1 | 101 | 91.4 | 96.4 | 102 | 108 | > 10 | > 10 | > 10 | > 10 | > 10
4 | COc1ccc(CN2CCN(C(c3ccc(F)cc3)c3ccc(F)cc3)CC2)c(OC)c1OC [lomerizine] | 0 | 0 | 0.3 | 0 | 0 | 110 | 102 | 102 | 93 | 106 | 92.7 | 96.5 | 91.7 | 93.7 | 96.7 | 96.9 | 104 | 87.9 | 98.8 | 82.7 | 89.7 | 99.3 | 90.3 | 95.1 | 99.1 | 88.9 | 98.3 | 94 | 139 | 96 | > 10 | > 10 | > 10 | > 10 | > 10
5 | CCc1c2c(nc3ccc(O)cc13)-c1cc3c(c(=O)n1C2)COC(=O)[C@]3(O)CC [SN-38] | 32.4 | 11.9 | 15.6 | 16.2 | 19.7 | 86.6 | 48.6 | 29.5 | 5.6 | 2.4 | 102 | 101 | 71.2 | 58.3 | 9.6 | 99.4 | 89.5 | 73 | 34.1 | 20.7 | 107 | 102 | 79.9 | 25.8 | 4.9 | 112 | 85.9 | 54 | 25.1 | 28.8 | 0.0122 | 0.65 | 0.183 | 0.326 | 0.0579
6 | CO/N=C(\C(=O)N[C@@H]1C(=O)N2C(C(=O)OCOC(=O)C(C)(C)C)=C(/C=C\c3scnc3C)CS[C@H]12)c1csc(N)n1 [cefditoren-pivoxil] | 0.2 | 0 | 0 | 0 | 0 | 91 | 99.7 | 97.3 | 103 | 84.2 | 94.7 | 98.9 | 94.2 | 92.7 | 91.9 | 104 | 97.5 | 105 | 99.1 | 90.9 | 103 | 108 | 103 | 96.6 | 100 | 96.9 | 105 | 86.3 | 101 | 106 | > 10 | > 10 | > 10 | > 10 | > 10
7 | O=C(O)C1=CO[C@@H](O[C@@H]2O[C@H](CO)[C@@H](O)[C@H](O)[C@H]2O)[C@@H]2C(CO)=CC[C@H]12 [Geniposidic acid] | 0 | 0 | 0 | 0 | 0 | 110 | 105 | 102 | 111 | 94.6 | 100 | 107 | 97.5 | 104 | 101 | 117 | 101 | 106 | 103 | 96.3 | 102 | 96.2 | 101 | 94.5 | 101 | 98.7 | 103 | 95.4 | 113 | 108 | > 10 | > 10 | > 10 | > 10 | > 10
